“Also recorded” adds a separate entry of the source.
Legend:
[1] = system: HCC70 and MDA-MB-468 cells; assay: Five days proliferation analysis (Crystal Violet / CellTiter-Glo); format: cell-based; details: 5 days; MEHD7945A 10 nM, GDC-0068 and GDC-0941 1 uM
Method: Whether the combination of MEHD7945A with GDC-0068 or GDC-0941 would result in enhanced antiproliferative activity was tested in both HCC70 and MDA-MB-468 cells.
(§1) For proliferation, 5×10^5 cells were seeded in 96-well plates and treated with the indicated concentrations of GDC-0068, GDC-0941, and/or MEHD7945A. After 5 days, cells were fixed and stained with Crystal Violet. Cell proliferation was also analyzed with CellTiter-Glo Luminescent Cell Viability Assay (Promega) as described by the manufacturer. For heregulin (HRG, Peprotech) and epidermal growth factor (EGF, Peprotech)-induced proliferation, 5×10^5 cells were treated with GDC-0068, GDC-0941, and/or MEHD7945A in the presence of 4 ng/ml of ligands for 5 days and then stained with Crystal Violet.

[2] = system: MDA-MB-468- and HCC70-derived xenografts; assay: Cell line-derived xenograft tumor growth; format: in vivo, mice; details: MDA-MB-468 and HCC70 xenografts; p less than 0.01 combination vs monotherapy
Method: To expand these findings in vivo, the efficacy of MEHD7945A was tested in combination with either the Akt or PI3K inhibitor in both MDA-MB-468- and HCC70-derived xenografts.
(§2) For cell line-derived xenograft studies, mice were injected subcutaneously with 1×10^7 HCC70 or MDA-MB-468 suspended in 150 μL culture media/Matrigel (BD Biosciences) in a 4:1 ratio. One μmol/L of 17β-estradiol was supplemented in the mouse drinking water as described (Garcia-Garcia et al., Clinical cancer research: an official journal of the American Association for Cancer Research 18, 2603 (2012)).
(§3) Once tumors reached an average volume of about 150-250 mm^3, mice were randomized into treatment arms, with n=7-11 tumors/group. GDC-0068 [40 mg/kg] or GDC-0941 [75 mg/kg] were dissolved in 0.5% methylcellulose and 0.2% Tween-80 (MCT) solution and administered once daily via oral gavage. […] Tumors were measured by digital caliper over the entire treatment period. Tumor volume was determined using the formula: (length×width^2)×(π/6). Tumor volumes are plotted as means±SEM.

[3] = system: patient-derived xenografts (PDX) of TNBC; assay: Patient-derived xenograft tumor growth; format: in vivo, mice; details: MEHD7945A 10 mg/Kg twice weekly, GDC-0941 75 mg/Kg daily, GDC-0068 40 mg/kg daily
Method: The activity of the same treatments in patient-derived xenografts (PDX) of TNBC was then tested.
(§4) For patient-derived xenograft (PDX) studies, tumors were subcutaneously implanted in 6-week old female athymic nude mice. Upon xenograft growth, tumor tissue was reimplanted into recipient mice, which were randomized upon implant growth. For the collection of circulating tumor cells (CTCs), tumors were implanted into the mammary pad of athymic nude mice.
as §3

[4] = system: MDA-MB-468, HCC70 and patient-derived xenograft; assay: In vivo activity in three different models of TNBC; design: species or system mice; details: three TNBC models; MEHD7945A 10 mg/kg i.p. twice weekly, GDC-0068 40 mg/kg, GDC-0941 75 mg/kg oral once daily
Method: (§5) Several TNBC cell lines were treated with MEHD7945A, a dual-action antibody that targets both EGFR and HER3, AKT inhibitor GDC-0068, and pan-PI3K inhibitor GDC -0941. Cell viability was measured by CellTiter-Glo and Crystal Violet. Both cell line- and patient -derived xenograft models of TNBC were treated with MEHD7945A, GDC-0068, GDC-0941, or the combination of MEHD7945A with either GDC-0068 or GDC-0941. Tumor size and histology were examined. Protein expression was measured by Western blot, Mass Spectometry, CEER and immunohistochemistry.
To test the activity of these compounds in vivo, three different models of TNBC were used: two cell line (MDA-MB-468 and HCC70)-based and a patient-derived xenograft.
All mouse studies were conducted through institutional Animal Care and Use Committee (IACUC) approved animal protocols in accordance with institutional guidelines. Six-week-old female athymic nude mice were purchased from Charles River Laboratories and housed in air-filtered laminar flow cabinets with a 12-hour light cycle and food and water ad libitum.
as §2, §4, §3

[5] = system: EGFR and HER3; assay: CEER analysis of active and total EGFR and HER3 in xenograft tumors; format: in vivo, mice; details: for active and total levels of HER3 and EGFR (CEER): TNBC PDX, tumors harvested 2 h after the last drug administration
Method: The levels of EGFR and HER3 expression/activation in HCC70 tumors collected at the end of the experiments (day 39) was investigated. […] Frozen tissue was analyzed by Cooperative, Enhanced, Enzyme Immunoreactive (CEER), a platform that utilizes reverse-phase detection of nanogram quantities of protein.
The levels of pathway protein expression and their activation in xenografts were determined by CEER. (Kim et al., ASCO Annual Meeting abstract P2-06-13, (2010)) CEER utilizes the formation of unique immuno-complexes between capture antibodies printed on a nitrocellulose microarray surface, the target molecule in cell lysate reacted with the slide, and two independent detector-antibodies. One of the detector-antibody is conjugated to glucose oxidase, and the other is conjugated to horseradish peroxidase. Target detection (expressed as computational unit, CU) requires the presence of both detector-antibodies and the enzyme channeling event between glucose oxidase and horseradish peroxidase will not occur unless both antibodies are in close proximity.

[6] = system: EGFR, HER3 and downstream signaling pathways; assay: Western blot of EGFR, HER3 and downstream signaling in cells; format: cell-based; details: 24 hours, 1 uM; for expression of HER3: HCC70 and MDA-MB-468 cells; for activation of EGFR and HER3: HCC70 cells
Method: HCC70 and MDA-MB-468 TNBC cell lines, characterized by elevated levels of EGFR and loss of PTEN expression, were treated with GDC-0068, GDC-0941, MEHD7945A, and the combinations of these inhibitors.
Cells were washed with ice-cold phosphate buffered saline (PBS) and scraped into ice-cold RIPA lysis buffer (Cell Signaling) supplemented with phosphatase inhibitor cocktails (Complete Mini, and PhosphoStop (Roche)). Lysates were cleared by centrifugation at 13,000 rpm for 10 minutes at 4° C., supernatants removed and assayed for protein concentration using the Pierce BCA Protein Assay Kit (Thermo Scientific). Thirty-five micrograms of total lysate was resolved on NuPAGE 4-12% Bis-Tris gels (Life Technologies) and electrophoretically transferred to Immobilon transfer membranes (Millipore). Membranes were blocked for 1 hour in 5% nonfat dry milk in TBS-Tween and then hybridized using the following primary antibodies in 5% bovine serum albumin (BSA) TBS-Tween: phospho-Akt (Ser473), phospho-Akt (Thr308), Akt, phospho-S6 (Ser(240/4), phospho-S6 (Ser235/6), S6, phospho-PRAS40 (Thr246), PRAS40, phospho-Erk (Thr202/Tyr204), Erk, phospho-EGFR (Tyr1068), EGFR, phospho-HER3 (Tyr1289), HER3 (1:500-1:1000, Cell Signaling). Beta-actin was used as a loading control (1:5000, Sigma), also in 5% BSA TBS-Tween. Mouse and rabbit horseradish peroxidase (HRP)-conjugated secondary antibodies (1:50,000, Amersham Biosciences) were diluted in 2% nonfat dry milk in TBS-Tween. Protein—antibody complexes were detected by chemiluminescence with SuperSignal West FemtoChemiluminescent Substrate (Thermo Scientific) and images were captured with a G-BOX camera system.

[7] = system: TNBC cell lines; assay: Cell viability by CellTiter-Glo and Crystal Violet; format: cell-based; details: across all TNBC cell lines; read-out: IC50s, inhibition of cell viability
Method: as §5, §1

[8] = HCC70 tumors collected at day 39

| SMILES | inhibition of cell proliferation/viability [1] | tumor growth inhibition [2] | tumor growth [3] | tumor growth [4] | EGFR and HER3 expression and phosphorylation (CEER) [5, 8] | active and total levels of HER3 and EGFR (CEER) [5] | expression of HER3 [6] | activation of EGFR and HER3 [6] | IC50 [7] [nM] | total EGFR receptor levels (CEER) [5, 8] |
| --- | --- | --- | --- | --- | --- | --- | --- | --- | --- | --- |
| CS(=O)(=O)N1CCN(Cc2cc3nc(-c4cccc5[nH]ncc45)nc(N4CCOCC4)c3s2)CC1 [GDC-0941, 4-(2-(1H-indazol-4-yl)-6-((4-(methylsulfonyl)piperazin-1-yl)methyl)thieno[3,2-d]pyrimidin-4-yl)morpholine] | varying sensitivity | responded only modestly | delayed tumor growth | variable delay in tumor growth | overall increase of both EGFR and HER3 expression and phosphorylation | increased | increased expression of HER3 | activation of both EGFR and HER3 | ≥ 170 |  |
| CC(C)NC[C@@H](C(=O)N1CCN(c2ncnc3c2[C@H](C)C[C@H]3O)CC1)c1ccc(Cl)cc1 [GDC-0068] | varying sensitivity | responded only modestly | superior antitumor activity compared with GDC-0941 | variable delay in tumor growth | overall increase of both EGFR and HER3 expression and phosphorylation | increased; also recorded: lower ability to induce EGFR and HER3 phosphorylation | increased expression of HER3 | activation of both EGFR and HER3 | ≥ 170 | no changes in the total receptor levels were observed |

— patent publication US9566334B2, “Combinations of a PI3K/AKT inhibitor compound with an HER3/EGFR inhibitor compound and use thereof in the treatment of a hyperproliferative disorder” (THE GENERAL HOSPITAL CORPORATION, priority 2012, dated 2017)
